From patent publication US20080287526A1, “Pharmaceuticals for treating or preventing oral diseases” (HAWLEY & HAZEL (BVI) COMPANY LIMITED, priority 2007, published 2008)

Assays:
IL-1β = test: Anti-inflammatory effect in KB cells, LUMINEX analysis of IL-1β; assay type: cell-based, human; conditions: KB cell supernatant; the larger the value, the stronger the anti-inflammatory ability; test concentration not given
Procedure: (§1) Anti-inflammatory activity was assessed using the KB cell (the epidermis cancer cell in human oral cavity). During the experiment, the KB cell inoculated in the cultivating plate was treated with or without positive control or compound Morusin A. After the treatment, the supernatant of the cultivating medium was collected and stored in −80° C. refrigerator. Inflammation was assessed by measuring several inflammation markers: Prostaglandin E2 (PGE2) in the supernatant was detected by Enzyme-linked immunosorbent assay, and LUMINEX™ multifunctional liquid-phase chip analysis system was used for the detection of granulocyte monocyte colony stimulating factor (GM-CSF), tumor necrosis factor-alpha (TNF-α), and interleukins 1-beta and 6 (IL-1β and IL-6).
(§2) LUMINEX™ multifunctional liquid-phase chip analyses of GM-CSF, TNF-α, IL-1 and IL-6: The 96-well plate was enclosed with enclosing liquid for 30 minutes. Fluorescent microspheres were added into the 96-well plate after dilution. The standard and the samples to be measured were added, and incubated overnight at 4° C. The next day, the supernatant was discarded and 50 μL GM-CSF, TNF-α, IL-1β and IL-6 antibodies were added to each well. After being rinsed for 4 times, the 96-well plate was placed in a shaking table, which was in ambient temperature, to keep the plate away from light for one hour. […]

TNF-α = test: Anti-inflammatory effect in KB cells, LUMINEX analysis of TNF-α; assay type: cell-based, human; conditions: KB cell supernatant; the larger the value, the stronger the anti-inflammatory ability; test concentration not given
Procedure: as §1, §2

[1] = tested on: Actinomyces viscosus ATCC 27044; test: Antibacterial MIC, micro-dilution method; assay type: cell-based; conditions: minimum inhibitive concentration; 2-fold dilution series 250-0.12 mg/L, ceiling 250 ppm; 37 °C, 18-24 h; unit not given
Procedure: (§3) A single colony was picked from the Trypticase Digested Soybean peptone agar blood plate (TSA5B) of ordinarily stored bacteria species and used to inoculate corresponding broth culture medium, which was cultivated in a microaerobic environment (P.g needs anaerobic cultivation) with 95% air, 5% CO2 at 37.0° C.±1.0° C., wherein S.m was cultivated for 18-24 h, and the remaining two species were cultivated for 40-48 h. Then corresponding broth cultivate medium was used to adjust the turbidity of the bacteria suspension to 0.5^# McFarland standard, equivalent to 1.0×10^8 CFU/mL.
(§4) The operating steps were:
(§5) a. Preparation of the stock solution of antibacterial pharmaceutical: 1% stock solution of various antibacterial pharmaceuticals was prepared with 100% pure ethanol as solvent. The prepared stock solution was filtered to eliminate bacteria, and was distributed into small portions to be used.
(§6) b. Range of measured concentration: the present experiment used 250 ppm as the ceiling measured concentration of the anti-bacterial pharmaceutical.
(§7) c. Measuring method: micro-dilution method.
(§8) First, 100 μL broth medium was added to each well of the 96-well plate, then 100 μL sterile anti-bacteria pharmaceutical solution, which was diluted 10-fold (1000 mg/L), was added to each well of the first column. Then each well of the first column was mixed repeatedly for 7-8 times using a multi-channel micropipet, and 100 μL sample was transferred to the second column after sufficiently mixing the pharmaceutical with TSB. After being mixed similarly for 7-8 times, 100 μL sample was transferred to the third column, and likewise to the wells of the remaining columns. Thus the concentration of the pharmaceutical was gradiently diluted 2-fold between the columns, from 500 mg/L in the first column to 0.24 mg/L in the last column (the 12th column).
(§9) The bacteria to be tested and the standard bacteria were prepared using the same method as above. […] 0.12 mg/L, and the final inoculation quantity was about […] or 5×10^6 bacteria in each well. […]

[2] = tested on: Porphyromonas gingivalis ATCC 33277; test: Antibacterial MIC, micro-dilution method; assay type: cell-based; conditions: minimum inhibitive concentration; anaerobic; 2-fold dilution series 250-0.12 mg/L, ceiling 250 ppm; 37 °C, 18-24 h; unit not given
Procedure: as §3, §4, §5, §6, §7, §8, §9

[3] = tested on: Streptococcus mutans ATCC 25175; test: Antibacterial MIC, micro-dilution method; assay type: cell-based; conditions: minimum inhibitive concentration; 2-fold dilution series 250-0.12 mg/L, ceiling 250 ppm; 37 °C, 18-24 h; unit not given
Procedure: as §3, §4, §5, §6, §7, §8, §9

GM-CSF = test: Anti-inflammatory effect in KB cells, LUMINEX analysis of GM-CSF; assay type: cell-based, human; conditions: KB cell supernatant; the larger the value, the stronger the anti-inflammatory ability; test concentration not given
Procedure: as §1, §2

IL-6 = test: Anti-inflammatory effect in KB cells, LUMINEX analysis of IL-6; assay type: cell-based, human; conditions: KB cell supernatant; the larger the value, the stronger the anti-inflammatory ability; test concentration not given
Procedure: as §1, §2

MIC, A. v ATCC 27044 [1]: 3.9
MIC, P. g ATCC 33277 [2]: 15.6
MIC, S. m ATCC 25175 [3]: 3.9
Compound: CC1=C[C@H]2c3c(O)cc(-c4cc5ccc(O)cc5o4)cc3O[C@]3(c4ccc(O)cc4O)Oc4cc(O)ccc4[C@H](C1)[C@@H]23 [Morusin A]
anti-inflammatory effect, IL-1β (IL-1β): 23%
anti-inflammatory effect, TNF-α (TNF-α): 93%
anti-inflammatory effect, GM-CSF (GM-CSF): 11%
anti-inflammatory effect, IL-6 (IL-6): 53%
